From patent US20100081637A1, “Eczema treatment with vitamin D and analogs thereof method, composition and cream” (Innovia Skincare Corp., priority 2008, published 2010)

Tests used:
[1] = tested on: lesions from atopic dermatitis; details: five patients; calcipotriol 50 ug/g and maxacalitriol 25 ug/g, ointment; cited from earlier work
[2] = tested on: phosphate transport; details: cited from earlier work; for influence of presence or absence of luminal Ca on phosphate transport: vascular perfusion, 65 pM 1,25-dihydroxyvitamin D3 or 6.5 nM 24,25-dihydroxyvitamin D3
[3] = tested on: atopic dermatitis; assay: Topical vitamin D cream in eczema / atopic dermatitis patients, case reports (Examples 1-6); details: for effect of prior treatment on itch / effect of prior treatment on redness: prior treatments of the Example 3 patient, per parent
Text: Person, diagnosed with atopic dermatitis. […] Prior treatments consisted of:
We apply the cream after bathing, before bedtime, and during the night, when needed for itching. […]
Adult […]. […] A vitamin D (400 IU/g) cream was applied. […]

[4] = tested on: pruritus; assay: Dose response of pruritus scores against vitamin D concentration (the FIGURE); assay type: in vivo, human; details: topical application; read from the dose response graph
Text: The FIGURE is a graph illustrating the dose response experimental data in terms of pruritus scores on the vertical scale and a vitamin D concentration in international units per gram (IU/g) on the horizontal scale, with up to four different timing parameters represented by adjacent differentiated bars for each concentration. Pruritus relief is the fastest observed benefit after topical application of our claimed formulations. The graph below indicates an effective concentration as low as 50 IU/g. This is also an indication of bioavailability of vitamin D and therefore an indication of the lowest effective concentration for the treatment of additional symptoms of eczema.

[5] = tested on: phosphate metabolism; details: Cross and Peterlik 1981; cited from earlier work

Structure (SMILES): C=C1/C(=C\C=C2/CCC[C@]3(C)[C@@H]([C@H](C)/C=C/[C@@H](O)C4CC4)CC[C@@H]23)C[C@@H](O)C[C@@H]1O [calcipotriol]
- effect on lesions from atopic dermatitis [1]: improvement of lesions

Structure (SMILES): C=C1CCC(O)C/C1=C\C=C1\CCCC2(C)C1CCC2C(C)CCC(O)C(C)(C)O (stereo not drawn) [24,25-dihydroxyvitamin D3]
- influence of presence or absence of luminal Ca on phosphate transport [2]: did not influence

Structure (SMILES): CC1(C)O[C@@H]2C[C@H]3[C@@H]4CCC5=CC(=O)C=C[C@]5(C)[C@H]4[C@@H](O)C[C@]3(C)[C@]2(C(=O)CO)O1 [Desonide 0.5%, Desonide]
- effect of prior treatment on itch [3]: gives itch relief
- effect of prior treatment on redness [3]: reduces redness

Structure (SMILES): C=C1/C(=C\C=C2/CCC[C@]3(C)[C@@H]([C@H](C)CCCC(C)(C)O)CC[C@@H]23)C[C@@H](O)C[C@@H]1O [1,25-dihydroxyvitamin D3]
- influence of presence or absence of luminal Ca on phosphate transport [2]: did not influence

Structure (SMILES): Cl.OCCOCCN1CCN(C(c2ccccc2)c2ccc(Cl)cc2)CC1 (stereo not drawn) [Hydroxyz Hcl 10 mg]
- sleepiness under prior treatment ([3]; human, in vivo): made their sleepy
- effect of prior treatment on itch [3]: did not help

Structure (SMILES): CC(=O)OCC(=O)[C@@]12OC(C)(C)O[C@@H]1C[C@H]1[C@@H]3C[C@H](F)C4=CC(=O)C=C[C@]4(C)[C@@]3(F)[C@@H](O)C[C@@]12C [Fluocinonide 0.05%, Fluocinonide]
- effectiveness of prior treatment ([3]; prior treatment of the Example 5 patient, self-reported): fairly effective

Structure (SMILES): C=C1CC[C@H](O)C/C1=C/C=C1\CCC[C@]2(C)[C@@H]([C@H](C)CCCC(C)C)CC[C@@H]12 [vitamin D, cholecalciferol]
- lowest effective concentration for pruritus relief [4]: 50 IU/g
- activity with respect to phosphate metabolism [5]: active

Structure (SMILES): C=C1CC[C@H](O)C/C1=C/C=C1\CCC[C@]2(C)[C@@H]([C@H](C)CCCC(C)(C)O)CC[C@@H]12 [25-hydroxyvitamin D3]
- stimulation of phosphate transport relative to the normal concentration (100 nM) ([2]; subnormal concentration (20 nM)): much higher rates
- phosphate transport, luminal Ca present ([2]; vascular perfusion with 100 nM 25-hydroxyvitamin D3): stimulated

Structure (SMILES): CCCCC(=O)O[C@]1(C(=O)CO)CC[C@H]2[C@@H]3CCC4=CC(=O)CC[C@]4(C)[C@H]3[C@@H](O)C[C@@]21C [Hydrocort Val 02%]
- effect of prior treatment on itch [3]: did not help
- effect of prior treatment on redness [3]: did not help

Structure (SMILES): C=C1/C(=C\C=C2/CCC[C@]3(C)[C@@H]([C@H](C)OCCC(C)(C)O)CC[C@@H]23)C[C@@H](O)C[C@@H]1O [maxacalitriol]
- effect on lesions from atopic dermatitis [1]: improvement of lesions
